{
  "source": "paper PMC9939793",
  "about": "(Infection and Drug Resistance, 2023)",
  "key": {"[1]": {"target": "neuraminidase of A(H1N1)pdm09-S247N isolate (A/NRW/142/2019) (Influenza A virus, UniProt A0A0X9QTS2, S247N)", "type": "biochemical"}, "[2]": {"tested_on": "A(H3N2) PA-I38M isolate (A/Berlin/9/2020)", "type": "cell-based, influenza A(H3N2)"}},
  "data": [
    {"smiles": "CC(=O)N[C@H]1[C@H]([C@H](O)[C@H](O)CO)OC(C(=O)O)=C[C@@H]1N=C(N)N", "note": "[Zanamivir, zanamivir]", "values": [
      {"measurement": "IC50 increase", "setting": "[1]", "result": "up to 7 fold"}
    ]},
    {"smiles": "CCC(CC)[C@H](NC(C)=O)[C@@H]1[C@H](O)[C@@H](C(=O)O)C[C@H]1N=C(N)N", "note": "[Peramivir, peramivir]", "values": [
      {"measurement": "IC50 increase", "setting": "[1]", "result": "up to 7 fold"}
    ]},
    {"smiles": "COC(=O)OCOc1c2n(ccc1=O)N([C@@H]1c3ccccc3SCc3c1ccc(F)c3F)[C@@H]1COCCN1C2=O", "note": "[baloxavir marboxil, Baloxavir marboxil]", "values": [
      {"measurement": "reduction of antiviral activity", "setting": "[2]", "result": "up to 5 fold"}
    ]}
  ]
}
